The target in test [1] is Induced myeloid leukemia cell differentiation protein Mcl-1 (Homo sapiens, UniProt Q07820).
For a further test, the target named is Bcl-2-like protein 1 (Homo sapiens, UniProt Q07817).
Test [2] has as its target Apoptosis regulator Bcl-2 (Homo sapiens, UniProt P10415).

Chain of Induced myeloid leukemia cell differentiation protein Mcl-1 (Q07820 whole entry): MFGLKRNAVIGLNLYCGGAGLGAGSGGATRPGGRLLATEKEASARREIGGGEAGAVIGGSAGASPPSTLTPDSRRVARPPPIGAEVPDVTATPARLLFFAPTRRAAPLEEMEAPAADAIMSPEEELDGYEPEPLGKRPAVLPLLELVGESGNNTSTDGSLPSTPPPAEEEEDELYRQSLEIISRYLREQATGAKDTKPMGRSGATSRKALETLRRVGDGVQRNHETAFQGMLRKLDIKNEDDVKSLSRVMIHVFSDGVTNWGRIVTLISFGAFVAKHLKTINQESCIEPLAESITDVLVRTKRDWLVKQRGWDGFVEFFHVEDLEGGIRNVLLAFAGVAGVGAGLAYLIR
Chain of Apoptosis regulator Bcl-2 (P10415 whole entry): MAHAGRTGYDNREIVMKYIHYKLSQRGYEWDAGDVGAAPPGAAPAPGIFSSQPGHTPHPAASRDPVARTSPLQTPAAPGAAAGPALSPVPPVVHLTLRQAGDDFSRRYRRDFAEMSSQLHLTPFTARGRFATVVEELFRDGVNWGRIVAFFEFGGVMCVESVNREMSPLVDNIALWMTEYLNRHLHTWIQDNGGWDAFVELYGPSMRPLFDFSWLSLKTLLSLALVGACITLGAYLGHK
Chain of Bcl-2-like protein 1 (Q07817 whole entry): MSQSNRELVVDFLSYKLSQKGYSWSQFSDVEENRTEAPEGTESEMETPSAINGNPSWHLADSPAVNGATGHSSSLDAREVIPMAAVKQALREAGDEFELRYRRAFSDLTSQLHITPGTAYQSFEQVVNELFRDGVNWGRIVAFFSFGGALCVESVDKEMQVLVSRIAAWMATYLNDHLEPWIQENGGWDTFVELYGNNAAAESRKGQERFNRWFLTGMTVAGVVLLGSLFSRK

As for `O=C(O)c1sc2ccccc2c1CCCc1cccc2ccccc12`, the inhibition constant (Ki) (commonly the dissociation constant of the complex between target and ligand, obtained from inhibition or displacement) in test [1] is 9.6 µM.

As to `Cc1cc(OCCC(=O)O)cc(C)c1Cl`, the inhibition constant (Ki) in test [1] is 60 µM; at Bcl-2-like protein 1, above 1000 µM; in test [2], above 1000 µM.

In turn, `O=C(O)c1cc2ccccc2[nH]1` [INDOLE-2-CARBOXYLIC ACID] had a Ki in test [1] above 1000 µM.

The molecule `O=C(O)c1oc2ccccc2c1CCCOc1cccc2ccccc12` displayed a Ki in test [2] of 4.3 µM.

Regarding `Cc1ccc2c(Cl)c(C(=O)O)sc2c1`, the Ki on Bcl-2-like protein 1 was 230 µM; in test [2], above 1000 µM.

Consider `Cc1cc(OCCCn2c(C(=O)O)cc3ccccc32)cc(C)c1Cl`, for which the Ki in test [1] stood at 0.41 µM.

In turn, `NC(=O)c1cc2ccccc2n1CCCOc1cccc2ccccc12` came in with a Ki in test [1] above 500 µM.

For `O=C(O)c1sc2ccccc2c1CCc1cccc2ccccc12`, the Ki in test [1] was 12.5 µM.

Take `Cc1c(C(=O)O)oc2c(C)cccc12`: the Ki (on Bcl-2-like protein 1; in test [2]) was above 1000 µM throughout.

With `Cc1cc(OCCCn2c(C(=O)O)cc3ccccc32)ccc1Cl`, affinity in test [1] was put at a Ki of 1.2 µM.

In the case of `O=C(O)c1[nH]c2cc(Cl)ccc2c1CCCOc1cccc2ccccc12`, the results for the Ki (at Bcl-2-like protein 1; in test [2]) were 6.8 µM and 0.96 µM, respectively.

`O=C(O)c1oc2ccccc2c1CCCc1cccc2ccccc12` displayed a Ki in test [1] of 14.6 µM.

As to `Cc1cc(OCC(=O)O)ccc1Cl`, the Ki in test [1] is 103 µM; on Bcl-2-like protein 1 it was above 1000 µM; in test [2], above 1000 µM.

Turning to `Cc1cc(OCCCc2c(C(=O)O)[nH]c3ccccc23)cc(C)c1Cl`, the Ki on Bcl-2-like protein 1 was above 15 µM; in test [2] it was 5.3 µM.

Consider `O=C(O)c1oc2ccccc2c1CCc1cccc2ccccc12`, for which, in test [1], the Ki was determined as 9.5 µM.

Consider `Cc1cc(OCCCc2c(C(=O)O)n(C)c3ccccc23)cc(C)c1Cl`, for which the Ki at Bcl-2-like protein 1 is above 15 µM; in test [2] it was 7.4 µM.

Turning to `O=C(O)c1sc2cccc(Cl)c2c1Cl`, the Ki (at Bcl-2-like protein 1; in test [2]) was above 1000 µM throughout.

For `Cc1cccc2c(-c3ccccc3)c(C(=O)O)[nH]c12`, the Ki (at Bcl-2-like protein 1; in test [2]) was above 1000 µM each time.

For `O=C(O)c1c(CCCOc2cccc3ccccc23)c2ccccc2n1Cc1ccccc1`, the Ki was 0.29 µM in test [1], above 15 µM on Bcl-2-like protein 1 and above 15 µM in test [2].

In the case of `Cc1cc(OCCCc2c(C(=O)O)[nH]c3ccccc23)ccc1Cl`, the Ki at Bcl-2-like protein 1 is above 15 µM; in test [2] it was 9.1 µM.

Molecule `O=C(O)c1cc2ccccc2o1` yielded a Ki in test [1] above 1000 µM.

Consider `Cc1cc(OCCCc2c(C(=O)O)sc3cc(Cl)ccc23)cc(C)c1Cl`, for which the Ki turned out to be 4.1 µM at Bcl-2-like protein 1 and 0.8 µM in test [2].

As to `O=C(O)c1sc2cc(Cl)ccc2c1CCCOc1cccc2ccccc12`, in test [2], affinity was put at a Ki of 0.96 µM.

Consider `Cn1c(C(=O)O)c(CCCOc2cccc3ccccc23)c2ccccc21`, for which the inhibition constant (Ki) (at Bcl-2-like protein 1; in test [2]) was above 15 µM in each case.

For the molecule `c1ccc2c(CSc3ncn[nH]3)cccc2c1`, the inhibition constant Ki in test [1] was 86 µM; on Bcl-2-like protein 1 it was above 1000 µM; in test [2], above 1000 µM.

Regarding `O=C(O)c1[nH]c2cc(Cl)ccc2c1CCCOc1cccc2c1CCCC2`, the Ki in test [1] was 0.066 µM.

For the molecule `Cc1cc(OCCCc2c(C(=O)O)[nH]c3cc(Cl)ccc23)ccc1Cl`, the results for the Ki (at Bcl-2-like protein 1; in test [2]) were above 15 µM and 1.4 µM, respectively.

In the case of `O=C(O)c1cc2ccccc2n1CCCOc1cccc2ccccc12`, in test [1], the affinity, expressed as Ki, was 0.47 µM.

Source of the values: ChEMBL document CHEMBL2311248, “Discovery of potent myeloid cell leukemia 1 (Mcl-1) inhibitors using fragment-based methods and structure-based design” (J Med Chem, 2013).
